Consider 5 compounds from US20230295163A1, “TETRACYCLIC DERIVATIVE, METHOD FOR PREPARING SAME AND USE THEREOF IN MEDICINE” (ZHEJIANG HISUN PHARMACEUTICAL CO., LTD., priority 2020, published 2023).

Where two headings read alike, the source gives them in different places.

The target in data set [1] is T1, recombinant human KRAS G12C protein (Homo sapiens, UniProt P01116, G12C).
T1 construct: The recombinant human KRAS G12C protein (aa1-169)
Nature of the data set: Covalent binding ability to KRAS G12C protein (LC-MS). Particulars: 3 μM, 5 min. The procedure: The following method was used to determine the covalent binding ability of the compounds of the present disclosure to recombinant human KRAS G12C protein under in vitro conditions.
The experimental procedure is briefly described as follows: The recombinant human KRAS G12C protein (aa1-169) was prepared with a reaction buffer (20 mM HEPES, 150 mM NaCl, 1 mM MgCl2, 1 mM DTT) at a concentration of 4 μM for later use. The test compound was prepared with DMSO into a 10 mM stock solution, which was then diluted with the reaction buffer for later use. First, 1.5 μL of the test compound diluted with the reaction buffer was added to each well (a final concentration of the reaction system was […]), then added with 23.5 μL of the reaction buffer, mixed well, then added with 25 μL of 4 μM recombinant human KRAS G12C protein for 5 min of incubation at room temperature, and added with 5 μL of acetic acid to stop the reaction. The samples were transferred to injection vials. The ratios of covalent binding between the test compounds and KRAS G12C protein were detected by Agilent 1290/6530 instrument, and the samples were analyzed in a liquid chromatography column (XBridge Protein BEH C4, 300 Å, 3.5 μm, 2.1 mm×50 mm). In the detection process, mobile phase A was 0.1% formic acid aqueous solution, mobile phase B was acetonitrile, the mobile phase elution program was as follows: mobile phase A was kept at 95% at 0-0.5 min, changed to 30% at 2.5 min for 0.5 min, and changed to 95% at 3.1 min for 1.9 min; and flow rate was 0.5 mL/min. Finally, the data was analyzed by MassHunter Workstation Software Bioconfirm Version B.08.00 to obtain the covalent binding rate between the test compound at a concentration of 3 μM and KRAS G12C protein under 5 min of incubation.

In a further data set the test system is NCI-H358 cells. Nature of the data set: Inhibition of NCI-H358 cell proliferation (CellTiter-Glo). The class given is cell-based, human. Particulars: 120 h of culture, read-out: IC50 inhibiting NCI-H358 cell proliferation. The procedure: The following method was used to determine the effect of the compounds of the present disclosure on the proliferation of NCI-H358 cells. NCI-H358 cells (containing KRAS G12C mutation) were purchased from the Cell Resource Center, Shanghai Institutes for Biology Sciences, Chinese Academy of Sciences, and cultured in RPMI 1640 medium containing 10% fetal bovine serum, 100 U penicillin, 100 μg/mL streptomycin and 1 mM sodium pyruvate. Cell viability was determined by CellTiter-Glo® Luminescent Cell Viability Assay Kit (Promega, Cat. No. G7573).
The experiment was conducted according to the steps in the kit instruction, which is briefly described as follows: The test compound was first prepared with DMSO into a 10 mM stock solution, which was then diluted with medium into a test sample with a final concentration of the compound ranging from 1000 nM to 0.015 nM Cells in the logarithmic growth phase were inoculated into a 96-well cell culture plate at a density of 800 cells per well, cultured overnight at 37° C. in a 5% CO2 incubator, and then added with the test compound for 120 h of culture. After the culture was completed, 50 μL of CellTiter-Glo detection solution was added to each well, shaken for 5 min and left to stand for 10 min. Subsequently, the luminescence value of the sample in each well was read by a microplate in a luminescence mode. The percentage of inhibition rate of the compounds at each concentration was calculated by comparing with the value of the control group (0.3% DMSO). Then a nonlinear regression analysis on the log concentration-inhibition rate of the compounds was performed by the software GraphPad Prism 5 to obtain the IC50 value of the compound inhibiting NCI-H358 cell proliferation. Table 2 IC50 data of compounds of the present disclosure inhibiting NCI-H358 cell proliferation Compound number IC50(nM)
(In general: Cellular ATP, detected with luciferase, serves as a proxy for viable cell number.)

In data set [2] the test system is p-ERK1/2 in NCI-H358 cells. Nature of the data set: Inhibition of p-ERK1/2 in NCI-H358 cells (HTRF kit). The class given is cell-based. Particulars: Homo sapiens, hEGF 5 nM stimulation, read-out: IC50 inhibiting p-ERK1/2 in NCI-H358 cells. The text has this: The following method was used to determine the inhibitory activity of the compounds of the present disclosure on p-ERK1/2 in NCI-H358 cells. In this method, Advanced phospho-ERK1/2 (Thr202/tyr204) kit (Cat. No. 64AERPEH) from Cisbio company was used, and the detailed experimental operation can be referred to the kit instruction. NCI-H358 cells (containing KRAS G12C mutation) were purchased from the Cell Resource Center, Shanghai Institutes for Biology Sciences, Chinese Academy of Sciences.
The experimental procedure is briefly described as follows: NCI-H358 cells were cultured in RPMIH 1640 complete medium containing 10% fetal bovine serum, 100 U penicillin, 100 μg/mL streptomycin and 1 mM sodium pyruvate. […] The 96-well plate was placed on ice for half an hour of lysis, and then the lysate was detected according to the instruction of the Advanced phospho-ERK1/2 (Thr202/tyr204) kit. Finally, the fluorescence intensity of each well at emission wavelengths of 620 nm and 665 nM was measured on a microplate reader in TF-FRET mode at an excitation wavelength of 304 nm, and the ratio of the fluorescence intensity of each well at 665/620 was calculated. The percentage of inhibition rate of the test compounds at each concentration was calculated by comparing with the fluorescence intensity of the control group (0.1% DMSO). […]
For orientation: Time-resolved FRET reads energy transfer from a long-lived donor to a nearby acceptor.

A short description of data set [3]: ICR mouse pharmacokinetic research. The format is in vivo. As to conditions: plasma, po, ICR mice, intragastric administration 5 mg/kg. The procedure:
ICR mice were used as test animals. The drug concentrations in plasma at different time points of the compounds in Comparative Example 1 and Example 17 of the present disclosure intragastrically administered to the mice were determined by LC/MS/MS method, to study the pharmacokinetic characteristics of the compounds of the present disclosure in mice.
Preparation for intragastric administration: An appropriate amount of the compound to be tested was weighed, added with an appropriate amount of DMSO: PEG 200=5%: 95% (v/v), shaken by vortex, and prepared into a solution with a final concentration of 0.5 mg/mL.
Intragastric administration group: After fasting overnight, the mice were intragastrically administered at a dose of 5 mg/kg and a volume of 10 mL/kg, and fed 4 h after the administration.
Intragastric administration group: About 100 μL of blood was collected through the orbital vein before administration and at 0.25 h, 0.5 h, 1 h, 2 h, 4 h, 8 h, 12 h and 24 h after administration.
The whole blood sample was put in an EDTA-K2 anticoagulant tube. The plasma was separated by centrifugation at 1500 g for 10 min. The collected upper layer plasma was stored at −40 to −20° C. before analysis.
The content of the compound to be tested in mouse plasma was determined by LC-MS/MS after the compound was intragastrically administered.

T1 sequence (P01116 1-169 isoform P01116-2 G12C): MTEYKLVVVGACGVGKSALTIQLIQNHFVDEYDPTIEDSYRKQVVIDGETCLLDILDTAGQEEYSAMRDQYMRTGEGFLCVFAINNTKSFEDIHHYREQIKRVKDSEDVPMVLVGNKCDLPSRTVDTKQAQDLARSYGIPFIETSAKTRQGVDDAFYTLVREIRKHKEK

For `C=CC(=O)N1C[C@@H]2C(=O)N(C)c3c(c4cc(F)c(-c5nc(N)ccc5Cl)nc4n(-c4c(C)ccnc4C(C)C)c3=O)N2C[C@H]1C` [Compound 10, (2R,4aR)-3-acryloyl-10-(6-amino-3-chloropyridin-2-yl)-11-fluoro-8-(2-isopropyl-4-methylpyridin-3-yl)-2,6-dimethyl-2,3,4,4a,6,8-hexahydro-1H-pyrazino [1′,2′:4,5]pyrazino[2,3-c][1,8] naphthyridine-5,7-dione], the “Covalent binding rate (%)” value in data set [1] was 45.5%. Besides, the IC50 in the data set on NCI-H358 cells (Homo sapiens, NCI-H358, 120 h) worked out at 0.0734 µM.
Turning to `C=CC(=O)N1C[C@@H]2C(=O)N(C)c3c(c4cc(Cl)c(-c5c(O)cccc5F)nc4n(-c4c(SC)ccnc4C(C)C)c3=O)N2C[C@H]1C` [Compound 16, (2R,4aR)-3-acryloyl-11-chloro-10-(2-fluoro-6-hydroxyphenyl)-8-(2-isopropyl-4-(methylthio)pyridin-3-yl)-2,6-dimethyl-2,3,4,4a,6,8-hexahydro-1H-pyrazino [1′,2′:4,5]pyrazino[2,3-c][1,8] naphthyridine-5,7-dione], in data set [1], the “Covalent binding rate (%)” value was determined as 38.5%. The IC50 in the data set with NCI-H358 cells amounted to 0.0399 µM; in data set [2] it was 0.093 µM.
On to `C=CC(=O)N1C[C@@H]2C(=O)N(C)c3c(c4cc(Cl)c(-c5c(O)cccc5F)nc4n(-c4c(SC)ccnc4C(C)C)c3=O)N2C[C@H]1C` [Compound 18], for which the IC50 in the data set with NCI-H358 cells was determined as 0.0985 µM.
The half-life is how long it takes for the measured level to halve. Regarding `C=CC(=O)N1C[C@@H]2C(=O)N(C)c3c(c4cc(Cl)c(-c5c(O)cccc5F)nc4n(-c4c(C)ccnc4C(C)C)c3=O)N2C[C@H]1C` (atropisomer, axis not shown) [Comparative Example 1, reference compound], in data set [3] (read-out: Area under curve AUC0-∞), the AUC(0-inf) was determined as 4180 ng·h/mL. For the same compound, the Cmax in data set [3] (read-out: Blood concentration Cmax) came out at 928 ng/mL. Besides, the half-life in data set [3] (read-out: Half-life T½ (converted)) is 1.95 h.
For the compound `C=CC(=O)N1C[C@@H]2C(=O)N(C)c3c(c4cc(F)c(-c5ccc(F)c6sc(N)nc56)nc4n(-c4c(C)ccnc4C(C)C)c3=O)N2C[C@H]1C` [Compound 7, (2R,4aR)-3-acryloyl-10-(2-amino-7-fluorobenzo[d]thiazol-4-yl)-11-fluoro-8-(2-isopropyl-4-methylpyridin-3-yl)-2,6-dimethyl-2,3,4,4a,6,8-hexahydro-1H-pyrazino [1′,2′:4,5]pyrazino[2,3-c][1,8]naphthyridine-5,7-dione], in data set [1], the “Covalent binding rate (%)” value is reported as 42.5%. The IC50 in the data set with NCI-H358 cells (Homo sapiens, NCI-H358, 120 h) was found to be 0.0672 µM.
